Measurements taken from patent US20120021973A1, “Peptides for Treatment of Obesity” (priority 2008, published 2012).
*1 amine or outer side, *2 acyl side, *3 side chain or, on linkers, in order; H or OH if unused. Where a SMILES comes first, the peptide text is derived from it. Bridges are numbered along the chain shown (N, C = ends). [ ]: non-standard residue; d: D form. The star is where a group is joined. Palmitoyl(16-(5-tetrazolyl)) = O=C(CCCCCCCCCCCCCCCc1nnn[nH]1)*; Lys(CH2CO2H)2 = N[C@@H](CCCCN(CC(=O)O)CC(=O)O)C(=O)O; X1 = O=C(O)CN(CC(=O)O)C[C@H](N[*:1])C(=O)[*:2]; C20 diacid = O=C(O)CCCCCCCCCCCCCCCCCCC(=O)*; Hyp = O=C(O)[C@@H]1C[C@@H](O)CN1; NTA = O=C(O)CN(CC(=O)O)CC(=O)*; Nle = CCCC[C@H](N)C(=O)O; Dap = NC[C@H](N)C(=O)O; AEEA = NCCOCCOCC(=O)O; βAla = NCCC(=O)O

Test system: ad libitum fed rat
Assay: Assay (I) efficacy testing on appetite, ad libitum fed rat model
Assay type: in vivo
Procedure: Assay (I)— Experimental Protocol for Efficacy Testing on Appetite with MC4 Analogues, Using an Ad Libitum Fed Rat Model.
TAC:SPRD @mol rats or Wistar rats from M&B Breeding and Research Centre A/S, Denmark are used for the experiments. The rats have a body weight 200-250 g at the start of experiment. The rats arrive at least 10-14 days before start of experiment with a body weight of 180-200 g. Each dose of compound is tested in a group of 8 rats. A vehicle group of 8 rats is included in each set of testing.
When the animals arrive they are housed individually in a reversed light/dark phase (lights off 7:30 am, lights on 7:30 pm), meaning that lights are off during daytime and on during nighttime. Since rats normally initiate food intake when light is removed, and eat the major part of their daily food intake during the night, this set up results in an alteration of the initiation time for food intake to 7:30 am, when lights are switched off. During the acclimatization period of 10-14 days, the rats have free access to food and water. During this period the animals are handled at least 3 times. The experiment is conducted in the rats' home cages. Immediately before dosing the rats are randomised to the various treatment groups (n 8) by body weight. They are dosed according to body weight at between 7:00 am and 7:45 am, with a 1-3 mg/kg solution administered intraperitoneally (ip), orally (po) or subcutaneously (sc). The time of dosing is recorded for each group. After dosing, the rats are returned to their home cages, where they then have access to food and water. The food consumption is recorded individually every hour for 7 hours, and then after 24 h and sometimes 48 h. At the end of the experimental session, the animals are euthanised.
The individual data are recorded in Microsoft excel sheets. Outliers are excluded after applying the Grubbs statistical evaluation test for outliers, and the result is presented graphically using the GraphPad Prism program.

SMILES | Food consumption (% of vehicle) 24 h (3 mg/kg) | Food consumption (% of vehicle) 48 h (3 mg/kg) | Food consumption (% of vehicle) 24 h (1 mg/kg) | Food consumption (% of vehicle) 48 h (1 mg/kg)
CCCC[C@H](NC(=O)[C@H](CNC(=O)CN(CC(=O)O)CC(=O)O)NC(=O)[C@H](Cc1c[nH]cn1)NC(=O)[C@H](CCC(N)=O)NC(=O)[C@H](CO)NC(=O)CNC(=O)COCCOCCNC(=O)CCCCCCCCCCCCCCCc1nnn[nH]1)C(=O)N[C@H]1CCC(=O)NCCCC[C@@H](C(N)=O)NC(=O)[C@H](Cc2c[nH]c3ccccc23)NC(=O)[C@H](CCCNC(=N)N)NC(=O)[C@@H](Cc2ccccc2)NC(=O)[C@@H]2C[C@@H](O)CN2C1=O [Example 9, (2-{2-[16-(Tetrazol-5-yl)hexadecanoylamino]ethoxy}ethoxy)acetyl-Gly-Ser-Gln-His-Dap(BCMA)-Nle-c[Glu-Hyp-D-Phe-Arg-Trp-Lys]-NH2] ({Palmitoyl(16-(5-tetrazolyl))-AEEA}-GSQH[Dap](NTA)[Nle]E[Hyp][dF]RWK-NH2; lactam 7-12) | 47 % of vehicle | 57 % of vehicle |  | 
CCCC[C@H](NC(=O)[C@H](CCCCNC(=O)CN(CC(=O)O)CC(=O)O)NC(=O)[C@H](CO)NC(=O)[C@H](CCC(N)=O)NC(=O)[C@H](CO)NC(=O)CNC(=O)COCCOCCNC(=O)CCCCCCCCCCCCCCCc1nnn[nH]1)C(=O)N[C@H]1CCC(=O)NCCCC[C@@H](C(N)=O)NC(=O)[C@H](Cc2c[nH]c3ccccc23)NC(=O)[C@H](CCCNC(=N)N)NC(=O)[C@@H](Cc2ccccc2)NC(=O)[C@@H]2C[C@@H](O)CN2C1=O [Example 15, (2-{2-[16-(Tetrazol-5-yl)hexadecanoylamino]ethoxy}ethoxy)acetyl-Gly-Ser-Gln-Ser-Lys(BCMA)-Nle-c[Glu-Hyp-D-Phe-Arg-Trp-Lys]-NH2] ({Palmitoyl(16-(5-tetrazolyl))-AEEA}-GSQSK(NTA)[Nle]E[Hyp][dF]RWK-NH2; lactam 7-12) |  |  | 74 % of vehicle | 85 % of vehicle
CCCC[C@H](NC(=O)[C@H](CN(CC(=O)O)CC(=O)O)NC(=O)[C@H](Cc1c[nH]cn1)NC(=O)[C@H](CCC(N)=O)NC(=O)[C@H](CO)NC(=O)CNC(=O)COCCOCCNC(=O)CCCCCCCCCCCCCCCc1nnn[nH]1)C(=O)N[C@H]1CCC(=O)NCCCC[C@@H](C(N)=O)NC(=O)[C@H](Cc2c[nH]c3ccccc23)NC(=O)[C@H](CCCNC(=N)N)NC(=O)[C@@H](Cc2ccccc2)NC(=O)[C@@H]2C[C@@H](O)CN2C1=O [Example 6, (2-{2-[16-(Tetrazol-5-yl)hexadecanoylamino]ethoxy}ethoxy)acetyl-Gly-Ser-Gln-His-Dap(biscarboxymethyl)-Nle-c[Glu-Hyp-D-Phe-Arg-Trp-Lys]-NH2] ({Palmitoyl(16-(5-tetrazolyl))-AEEA}-GSQH[X1][Nle]E[Hyp][dF]RWK-NH2; lactam 7-12) | 58 % of vehicle | 69 % of vehicle |  | 
CCCC[C@H](NC(=O)CCNC(=O)[C@H](CCCCN(CC(=O)O)CC(=O)O)NC(=O)[C@H](Cc1c[nH]cn1)NC(=O)[C@H](CCC(N)=O)NC(=O)[C@H](CO)NC(=O)[C@H](CO)NC(=O)[C@H](CCC(N)=O)NC(=O)[C@@H](CO)NC(=O)CNC(=O)COCCOCCNC(=O)COCCOCCNC(=O)CCCCCCCCCCCCCCCCCCC(=O)O)C(=O)N[C@H]1CCC(=O)NCCCC[C@@H](C(N)=O)NC(=O)[C@H](Cc2c[nH]c3ccccc23)NC(=O)[C@H](CCCNC(=N)N)NC(=O)[C@@H](Cc2ccccc2)NC(=O)[C@@H]2C[C@@H](O)CN2C1=O [Example 22, {2-[2-(2-{2-[2-(19-Carboxynonadecanoylamino)ethoxy]ethoxy}acetylamino)ethoxy]ethoxy}acetyl-Gly-D-Ser-Gln-Ser-Ser-Gln-His-Lys(biscarboxymethyl)-β-Ala-Nle-c[Glu-Hyp-D-Phe-Arg-Trp-Lys]-NH2] ({C20 diacid-AEEA-AEEA}-G[dS]QSSQH[Lys(CH2CO2H)2][βAla][Nle]E[Hyp][dF]RWK-NH2; lactam 11-16) |  |  | 59 % of vehicle | 76 % of vehicle
CCCC[C@H](NC(=O)[C@H](CNC(=O)CN(CC(=O)O)CC(=O)O)NC(=O)[C@H](CO)NC(=O)[C@H](CCC(N)=O)NC(=O)[C@H](CO)NC(=O)CNC(=O)COCCOCCNC(=O)CCCCCCCCCCCCCCCc1nnn[nH]1)C(=O)N[C@H]1CCC(=O)NCCCC[C@@H](C(N)=O)NC(=O)[C@H](Cc2c[nH]c3ccccc23)NC(=O)[C@H](CCCNC(=N)N)NC(=O)[C@@H](Cc2ccccc2)NC(=O)[C@@H]2C[C@@H](O)CN2C1=O [Example 4, (2-{2-[16-(Tetrazol-5-yl)hexadecanoylamino]ethoxy}ethoxy)acetyl-Gly-Ser-Gln-Ser-Dap(BCMA)-Nle-c[Glu-Hyp-D-Phe-Arg-Trp-Lys]-NH2] ({Palmitoyl(16-(5-tetrazolyl))-AEEA}-GSQS[Dap](NTA)[Nle]E[Hyp][dF]RWK-NH2; lactam 7-12) | 52 % of vehicle | 69 % of vehicle |  | 
